Laboratory results published in PubChem BioAssay AID2060616 (Molecular Pharmacology Branch, DTP, NCI, 2025).

Test system: 377384-186-R-J1-PDC complex spheroid viability
Experiment: Anticancer human tumor 377384-186-R-J1-PDC patient-derived pancreatic carcinoma cell line growth inhibition [CLK]
Details: for IC50: curve of first compound; for viability, T/C: stronger effect = lower value
Method in brief: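 Patient-derived tumor cells grown as complex spheroids with HUVEC endothelial cells and mesenchymal stem cells, treated with drug combinations. Concentrations descend in half-log steps from near clinical Cmax, or from 10 microM if Cmax unknown.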

[1] = second compound 0.0316 µM, first compound 0.0316 µM
[2] = second compound 0.0316 µM, first compound 0.1 µM
[3] = second compound 0.1 µM, first compound 0.0316 µM
[4] = second compound 0.1 µM, first compound 0.1 µM
[5] = second compound 0.316 µM, first compound 0.0316 µM
[6] = second compound 0.316 µM, first compound 0.1 µM
[7] = second compound 1 µM, first compound 0.0316 µM
[8] = second compound 1 µM, first compound 0.1 µM
[9] = second compound 3.16 µM, first compound 0.0316 µM
[10] = second compound 3.16 µM, first compound 0.1 µM
[11] = second compound 10 µM, first compound 0.0316 µM
[12] = second compound 10 µM, first compound 0.1 µM
[13] = second compound 0.0316 µM, first compound 0.316 µM
[14] = second compound 0.0316 µM, first compound 1 µM
[15] = second compound 0.0316 µM, first compound 3.16 µM
[16] = second compound 0.0316 µM, first compound 10 µM
[17] = second compound 0.1 µM, first compound 0.316 µM
[18] = second compound 0.1 µM, first compound 1 µM
[19] = second compound 0.1 µM, first compound 3.16 µM
[20] = second compound 0.1 µM, first compound 10 µM
[21] = second compound 0.316 µM, first compound 0.316 µM
[22] = second compound 0.316 µM, first compound 1 µM
[23] = second compound 0.316 µM, first compound 3.16 µM
[24] = second compound 0.316 µM, first compound 10 µM
[25] = second compound 1 µM, first compound 0.316 µM
[26] = second compound 1 µM, first compound 1 µM
[27] = second compound 1 µM, first compound 3.16 µM
[28] = second compound 1 µM, first compound 10 µM
[29] = second compound 3.16 µM, first compound 0.316 µM
[30] = second compound 3.16 µM, first compound 1 µM
[31] = second compound 3.16 µM, first compound 3.16 µM
[32] = second compound 3.16 µM, first compound 10 µM
[33] = second compound 10 µM, first compound 0.316 µM
[34] = second compound 10 µM, first compound 1 µM
[35] = second compound 10 µM, first compound 3.16 µM
[36] = second compound 10 µM, first compound 10 µM
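Note: spheroids exposed to agents for 7 days before reading.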
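Throughout, for viability, T/C: luminescence signal used as a stand-in for viable cells.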

## Cn1ncnc1[C@H]1c2n[nH]c(=O)c3cc(F)cc(c23)N[C@@H]1c1ccc(F)cc1 + CNC(=O)c1ccc(Nc2nc(OC3CCCC3)c3c(-c4ccc5nc(C)oc5c4)c[nH]c3n2)c(OC)c1
Second compound 0.0316 µM
  IC50: > 100 nM
Second compound 0.1 µM
  IC50: < 0.316 nM
Second compound 0.316 µM
  IC50: < 0.316 nM
Second compound 1 µM
  IC50: < 0.316 nM
Second compound 3.16 µM
  IC50: < 0.316 nM
Second compound 10 µM
  IC50: < 0.316 nM
Second compound 0.0316 µM, first compound 0.000316 µM
  viability, T/C: 91.7%
Second compound 0.0316 µM, first compound 0.001 µM
  viability, T/C: 87.6%
Second compound 0.0316 µM, first compound 0.00316 µM
  viability, T/C: 61.8%
Second compound 0.0316 µM, first compound 0.01 µM
  viability, T/C: 56.3%
[1]
  viability, T/C: 53.6%
[2]
  viability, T/C: 48.8%
Second compound 0.1 µM, first compound 0.000316 µM
  viability, T/C: 48.7%
Second compound 0.1 µM, first compound 0.001 µM
  viability, T/C: 42.7%
Second compound 0.1 µM, first compound 0.00316 µM
  viability, T/C: 36.5%
Second compound 0.1 µM, first compound 0.01 µM
  viability, T/C: 39%
[3]
  viability, T/C: 34.3%
[4]
  viability, T/C: 28.7%
Second compound 0.316 µM, first compound 0.000316 µM
  viability, T/C: 16.8%
Second compound 0.316 µM, first compound 0.001 µM
  viability, T/C: 18.2%
Second compound 0.316 µM, first compound 0.00316 µM
  viability, T/C: 19.2%
Second compound 0.316 µM, first compound 0.01 µM
  viability, T/C: 17.4%
[5]
  viability, T/C: 16%
[6]
  viability, T/C: 14.9%
Second compound 1 µM, first compound 0.000316 µM
  viability, T/C: 21.5%
Second compound 1 µM, first compound 0.001 µM
  viability, T/C: 18.2%
Second compound 1 µM, first compound 0.00316 µM
  viability, T/C: 17.6%
Second compound 1 µM, first compound 0.01 µM
  viability, T/C: 15.9%
[7]
  viability, T/C: 15.6%
[8]
  viability, T/C: 15.6%
Second compound 3.16 µM, first compound 0.000316 µM
  viability, T/C: 16.9%
Second compound 3.16 µM, first compound 0.001 µM
  viability, T/C: 18.6%
Second compound 3.16 µM, first compound 0.00316 µM
  viability, T/C: 17.3%
Second compound 3.16 µM, first compound 0.01 µM
  viability, T/C: 20%
[9]
  viability, T/C: 15.6%
[10]
  viability, T/C: 15.3%
Second compound 10 µM, first compound 0.000316 µM
  viability, T/C: 18.7%
Second compound 10 µM, first compound 0.001 µM
  viability, T/C: 17.5%
Second compound 10 µM, first compound 0.00316 µM
  viability, T/C: 20.7%
Second compound 10 µM, first compound 0.01 µM
  viability, T/C: 16.4%
[11]
  viability, T/C: 18.5%
[12]
  viability, T/C: 14.8%

## Nc1ccn(C2OC(CO)C(O)C2(F)F)c(=O)n1 (stereo unspecified) + CNC(=O)c1ccc(Nc2nc(OC3CCCC3)c3c(-c4ccc5nc(C)oc5c4)c[nH]c3n2)c(OC)c1
Second compound 0.0316 µM
  IC50: < 31.6 nM
Second compound 0.1 µM
  IC50: < 31.6 nM
Second compound 0.316 µM
  IC50: < 31.6 nM
Second compound 1 µM
  IC50: < 31.6 nM
Second compound 3.16 µM
  IC50: < 31.6 nM
Second compound 10 µM
  IC50: < 31.6 nM
[1]
  viability, T/C: 8.18%
[2]
  viability, T/C: 3.36%
[13]
  viability, T/C: 3.13%
[14]
  viability, T/C: 2.68%
[15]
  viability, T/C: 2.2%
[16]
  viability, T/C: 1.72%
[3]
  viability, T/C: 6.64%
[4]
  viability, T/C: 4.51%
[17]
  viability, T/C: 2.85%
[18]
  viability, T/C: 2.62%
[19]
  viability, T/C: 2.66%
[20]
  viability, T/C: 2.22%
[5]
  viability, T/C: 7.09%
[6]
  viability, T/C: 3.96%
[21]
  viability, T/C: 3.31%
[22]
  viability, T/C: 2.62%
[23]
  viability, T/C: 2.25%
[24]
  viability, T/C: 1.52%
[7]
  viability, T/C: 8.74%
[8]
  viability, T/C: 4.85%
[25]
  viability, T/C: 4.17%
[26]
  viability, T/C: 3.63%
[27]
  viability, T/C: 1.95%
[28]
  viability, T/C: 1.24%
[9]
  viability, T/C: 8.43%
[10]
  viability, T/C: 6.12%
[29]
  viability, T/C: 4.34%
[30]
  viability, T/C: 3.36%
[31]
  viability, T/C: 3.71%
[32]
  viability, T/C: 1.58%
[11]
  viability, T/C: 9.23%
[12]
  viability, T/C: 7.84%
[33]
  viability, T/C: 5.26%
[34]
  viability, T/C: 3.45%
[35]
  viability, T/C: 2.47%
[36]
  viability, T/C: 1.32%

## O=c1[nH]cc(F)c(=O)[nH]1 + CNC(=O)c1ccc(Nc2nc(OC3CCCC3)c3c(-c4ccc5nc(C)oc5c4)c[nH]c3n2)c(OC)c1
Second compound 0.0316 µM
  IC50: 3650 nM
Second compound 0.1 µM
  IC50: 46.4 nM
Second compound 0.316 µM
  IC50: < 31.6 nM
Second compound 1 µM
  IC50: < 31.6 nM
Second compound 3.16 µM
  IC50: < 31.6 nM
Second compound 10 µM
  IC50: < 31.6 nM
[1]
  viability, T/C: 98%
[2]
  viability, T/C: 98.3%
[13]
  viability, T/C: 96%
[14]
  viability, T/C: 82.1%
[15]
  viability, T/C: 50.3%
[16]
  viability, T/C: 46.3%
[3]
  viability, T/C: 49.6%
[4]
  viability, T/C: 50.9%
[17]
  viability, T/C: 45.4%
[18]
  viability, T/C: 54.5%
[19]
  viability, T/C: 41.6%
[20]
  viability, T/C: 43.5%
[5]
  viability, T/C: 20.4%
[6]
  viability, T/C: 20.3%
[21]
  viability, T/C: 16.7%
[22]
  viability, T/C: 16.4%
[23]
  viability, T/C: 14.5%
[24]
  viability, T/C: 14%
[7]
  viability, T/C: 22%
[8]
  viability, T/C: 17.8%
[25]
  viability, T/C: 19.2%
[26]
  viability, T/C: 14.9%
[27]
  viability, T/C: 13.2%
[28]
  viability, T/C: 10.7%
[9]
  viability, T/C: 20.2%
[10]
  viability, T/C: 19.7%
[29]
  viability, T/C: 17.6%
[30]
  viability, T/C: 16.7%
[31]
  viability, T/C: 12.6%
[32]
  viability, T/C: 9.93%
[11]
  viability, T/C: 16.8%
[12]
  viability, T/C: 17.2%
[33]
  viability, T/C: 17.1%
[34]
  viability, T/C: 16%
[35]
  viability, T/C: 10.8%
[36]
  viability, T/C: 11.4%
